The test system of this experiment is T8A7 (in solution, with anchor) (RNA, riboswitch) GGGGAACAAACAUUCAAAAUAAUAACACAAGAUAUGAGCGAAUGACAGCAAGGGGAGAGACCUGACCGAAAACCUCGGGAUACAGGCGCCGAAGGAGCAAACUGCGGAGUGAAUCUCUCAGGCAAAAGAACUCUUGCUCGACGCAACUCUGGAGAGUGUUUGUGCGGAUGCGCAAACCACCAAAGGGGACGUCUUUGCGUAUGCAAAGUAAACUUUCAGGUGCCAGGACAGAGAAGAAGGACGGGUCCAGCUGCUUCGGCAGCUGUUGAGUAGAGUGUGAGCUUCUCU
Description: in-solution fluorescence titration, Spinach/DFHBI-1T turn-off. The note with it: 125 mM K+, 20 mM Mg2+; apparent; 50 mM Tris pH 8.31, 20 µM DFHBI-1T.

The values that follow come from article PMC4937332 (2016).

The structures appear in SMILES notation.

On to `NCC(=O)O`, for which the KD stood at 71 ± 4 µM.
